Assay results reported in patent US20230265068A1, “TRANSIENT RECEPTOR POTENTIAL CANONICAL 3 INHIBITORS AND METHODS OF USE THEREOF” (University of Tennessee Research Foundation, priority 2020, published 2023).
Where two headings read alike, the source gives them in different places.

Assays:
[1] = metabolic stability in mouse liver microsomes; type: in vitro ADME; conditions: mouse liver microsomes
Procedure: (§1) The metabolic stability of compound 22 was tested prior to the next phase of in vivo study. […] The maximum tolerated dose (MTD) study was subsequently performed to investigate its in vivo toxicity (FIGS. 4A and 4B). The second major limitation of Pyr3 is its toxicity due to its alkylating tail moiety. While replacing only the fast-metabolizing head ester group in Pyr3 with a stable amide (compound 79) improved metabolic stability, a single IP injection of compound 79 at 200 mg/kg killed all mice within 24 h.

[2] = metabolic stability in rat liver microsomes; type: in vitro ADME; conditions: rat liver microsomes
Procedure: as §1

[3] = metabolic stability in human liver microsomes; type: in vitro ADME; conditions: human liver microsomes
Procedure: as §1

hippocampal neurons [4] = test: neuroprotection against Aβ-containing conditioned medium (7PA2) in primary hippocampal neurons; type: cell-based, rat; conditions: 14 DIV neurons, 7PA2 medium, 16 hours, different concentrations
Procedure: To visualize dendritic spines, 14 DIV hippocampal neurons at low density (5,000 cells per 35 mm dish) were exposed to 7PA2 conditioned media (CM), which contains naturally secreted Aβ, or CHO control media or for 16 h, with or without cotreatment with the two inhibitor compounds, followed by immunocytochemistry with MAP2 and DAPI counterstaining.
(§2) To explore the potential biological effects of compound 22 in a TRPC3 related disease model, its neuroprotective ability in primary cultured neurons (14 DIV prepared from E17 rats as described) was evaluated. The effects on neuron dendritic morphology were measured by imaging. Mature hippocampal neurons (DIV=14) were treated with CHO control medium, or naturally secreted Aβ-containing conditioned medium (7PA2), or in combination with compound 22 or Pyr3 at different concentrations, for 16 hours, followed by immunocytochemistry using an antibody against MAP2 and DAPI (data not shown). […] Hippocampal neurons (DIV=14) were treated with compound 22 or Pyr3 alone at different concentrations, followed by immunocytochemistry staining with MAP2 and DAPI (data not shown).

hippocampal neurons [5] = test: toxicity of compound alone in hippocampal neuronal culture; type: cell-based, rat; conditions: compound alone at different concentrations
Procedure: as §2

TRPC3 [6] = biological target: T1, TRPC3 (Homo sapiens, UniProt Q13507); conditions: literature ref 20; read-out: reported IC50 for suppression of TRPC3; cited from earlier work
T1 sequence (Q13507 1-921): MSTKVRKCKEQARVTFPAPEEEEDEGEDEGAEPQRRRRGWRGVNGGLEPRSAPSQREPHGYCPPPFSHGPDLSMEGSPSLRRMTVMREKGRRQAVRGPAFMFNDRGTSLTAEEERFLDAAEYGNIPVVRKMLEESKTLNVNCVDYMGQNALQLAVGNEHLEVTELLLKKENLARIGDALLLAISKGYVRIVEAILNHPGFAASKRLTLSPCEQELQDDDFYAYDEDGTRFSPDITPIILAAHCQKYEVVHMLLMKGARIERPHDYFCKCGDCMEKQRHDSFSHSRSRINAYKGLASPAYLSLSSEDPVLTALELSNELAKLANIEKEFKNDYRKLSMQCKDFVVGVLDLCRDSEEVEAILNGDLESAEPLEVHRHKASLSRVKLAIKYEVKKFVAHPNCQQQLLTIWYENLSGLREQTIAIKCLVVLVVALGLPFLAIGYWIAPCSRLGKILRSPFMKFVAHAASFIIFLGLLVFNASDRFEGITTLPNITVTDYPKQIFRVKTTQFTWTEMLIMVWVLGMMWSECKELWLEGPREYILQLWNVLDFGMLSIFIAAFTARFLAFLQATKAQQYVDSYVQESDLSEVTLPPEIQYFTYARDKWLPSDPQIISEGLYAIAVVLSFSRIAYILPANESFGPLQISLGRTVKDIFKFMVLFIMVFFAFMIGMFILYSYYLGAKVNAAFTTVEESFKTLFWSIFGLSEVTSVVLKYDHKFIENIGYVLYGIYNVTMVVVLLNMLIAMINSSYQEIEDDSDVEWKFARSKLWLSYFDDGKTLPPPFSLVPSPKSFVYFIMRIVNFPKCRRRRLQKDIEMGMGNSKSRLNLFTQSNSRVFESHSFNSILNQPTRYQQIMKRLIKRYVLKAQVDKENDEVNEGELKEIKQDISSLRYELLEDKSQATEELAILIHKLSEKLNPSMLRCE

TRPC3 [7] = biological target: T1, TRPC3; test: whole-cell patch clamp of HEK293 cells transfected with hTRPC3, currents activated by GSK1702934A; type: cell-based; parameters: expressed in transfected cells; host or cells: HEK293 (CRL-1573), transient transfection, pMO vector
Procedure: Human embryonic kidney 293 (HEK293; catalog number CRL-1573) cells were cultured in Dulbecco's modified Eagle's medium (Invitrogen) supplemented with 10% fetal bovine serum and 1% penicillin-streptomycin at 37° C. and 5% CO2. Constructs cloned in pMO (a pcDNA3-modified vector) were co-transfected with GFP-pMO, using Lipofectamine 2000 (Invitrogen) according to the manufacturer's instructions. Macroscopic currents in the whole-cell patch clamp configuration were recorded 18-24 h post-transfection. The extracellular solution contained 140 mM NaCl, 6 mM KCl, 2 mM MgCl2, 10 mM HEPES, and 10 mM glucose (pH 7.4). Pipettes were made of borosilicate glass (outer diameter, 1.5 mm; inner diameter, 1.10 mm; Sutter Instruments) and fire-polished with a resistance between 2.8 and 4.0 megaohms when filled with an intracellular solution that contained 140 mM CsCl, 5 mM EGTA, and 10 mM HEPES, pH 7.2. Currents were recorded with a Multiclamp 700B amplifier (Molecular Devices) using a 1-s ramp from −100 to 100 mV. Agonist and antagonists perfused were dissolved in the bath solution prior experiments: TRP channel agonists Allyl isothiocyanate (AITC; TRPA1), capsaicin (TRPV1), and menthol (TRPM8) were obtained from Sigma, GSK1016790A (TRPV4) from Cayman chemicals, and GSK1702934A (TRPC3, TRPC6 and TRPC7) from Tocris Bioscience. Antagonist Pyr3 was obtained from Tocris Bioscience, all other antagonists were synthesized in house. Data were acquired with a sampling rate of 20 kHz, low-pass filtered (10 kHz), and analyzed offline using Clampfit v10.4.2.0 (Molecular Devices).
Electrophysiology results were expressed as means±SD. Data were plotted, and sigmoidal fitting was done using OriginPro (from OriginLab), with the following Boltzmann function:
Using the patch clamp technique in the whole-cell configuration, compounds were screened by challenging hTRPC3 overexpressing HEK293 cells with GSK1702934A to activate TRPC3 and each of the synthesized compounds (10 μM) individually in the presence of the agonist.
To avoid tachyphylaxis and determine the IC50 of compound 22, each point of the dose response curve (FIG. 1B) was done individually on a cell and exchanging coverslips between cells. […] FIGS. 1D-1I show the inhibition of TRPC3-mediated currents by compound 22 and Pyr3 (serving as the reference control). […] Similar results were obtained when OAG was used as the agonist (data not shown).

In the case of `CCOC(=O)c1cnn(-c2ccc(NC(=O)C(Cl)=C(Cl)Cl)cc2)c1C(F)(F)F` [Pyr3, reference compound], the half-life time [1] is reported as “less than 15 minutes”, the half-life time [2] is reported as “less than 15 minutes” and the half-life time [3] is reported as “less than 15 minutes”. For the same compound, the “protection against Aβ-induced damage to dendrites (MAP2/DAPI)” value (hippocampal neurons [4]) was “protect against Aβ-induced damage to dendrites”, the “toxicity in neuronal culture” value (hippocampal neurons [5]) was “lack of toxicity” and the IC50 (TRPC3 [6]) was 700 nM. The “hTRPC3 % Inhibition at 10 μM (mean ± SEM)” value (TRPC3 [7]; 10 μM compound in presence of agonist GSK1702934A, HEK293 whole-cell peak current) was 91.72 ± 0.53% and the IC50 (TRPC3 [7]; agonist GSK1702934A, HEK293 whole-cell patch clamp, read-out: hTRPC3 IC50 (μM, mean ± SEM)) was 0.53 ± 0.05 µM.
